Measurements taken from the NIST ThermoML archive (doi:10.1016/j.jct.2011.08.016).

Details: Liquid, Vibrating tube method

CCCCCCCCCC [decane]
mass density [kg/m3]
Details | 313.07 K | 323 K | 332.87 K | 342.78 K | 352.8 K | 362.73 K
1000 kPa | 715.64 | 707.96 | 700.33 | 692.65 | – | –
2000 kPa | 716.68 | 708.93 | 701.26 | 693.68 | 686.08 | 678.44
3000 kPa | 717.38 | 709.81 | 702.21 | 694.72 | 687.17 | 679.58
4000 kPa | 718.16 | 710.88 | 703.17 | 695.7 | 688.23 | 680.71
5000 kPa | 719.02 | 711.52 | 704.12 | 696.68 | 689.3 | 681.85
6000 kPa | 719.65 | 712.48 | 705.07 | 697.68 | 690.33 | 682.98
7000 kPa | 720.52 | 713.3 | 705.98 | 698.61 | 691.38 | 684.09
8000 kPa | 721.28 | 714.23 | 706.88 | 699.57 | 692.38 | 685.16
9000 kPa | 722.11 | 715.05 | 707.79 | 700.54 | 693.41 | 686.25
10000 kPa | 723.13 | 715.91 | 708.65 | 701.49 | 694.37 | 687.29
11000 kPa | 723.65 | 716.74 | 709.52 | 702.4 | 695.36 | 688.32
12000 kPa | 724.48 | 717.54 | 710.39 | 703.29 | 696.32 | 689.33
13000 kPa | 725.48 | 718.35 | 711.26 | 704.14 | 697.29 | 690.34
14000 kPa | 726.15 | 719.15 | 712.07 | 705.05 | 698.22 | 691.28
15000 kPa | 726.86 | 719.92 | 712.9 | 705.93 | 699.15 | 692.36
16000 kPa | 727.49 | 720.7 | 713.71 | 706.79 | 700.03 | –
17000 kPa | 728.18 | 721.46 | 714.52 | 707.6 | 700.94 | –
18000 kPa | 729.07 | 722.22 | 715.32 | – | 701.82 | –
18010 kPa | – | – | – | 708.57 | – | –
19000 kPa | 729.72 | 722.97 | 716.1 | 709.45 | 702.71 | –
20000 kPa | 730.26 | 723.71 | 716.88 | 710.3 | 703.59 | –
21000 kPa | 731.22 | 724.45 | 717.65 | 710.91 | 704.44 | –
22000 kPa | 731.8 | 725.18 | 718.43 | 711.92 | 705.25 | –
23000 kPa | 732.7 | 725.92 | 719.19 | 712.48 | 706.14 | –
24000 kPa | 733.26 | 726.62 | 719.99 | 713.42 | 706.95 | –
25000 kPa | 733.93 | 727.42 | 720.76 | 714.1 | 707.83 | –
